# Laboratory results from patent US11325900B2, “5-(pyrimidin-4-yl)thiazol-2-yl urea derivatives as therapeutic agents” (AUCENTRA HOLDINGS PTY LTD, priority 2018, dated 2022).
# Tests used:
# HCT-116 = test: Cell viability assay (MTT, solid tumour cell lines), 72 h growth inhibition; type: cell-based; conditions: Homo sapiens, HCT-116 cells
# Excerpt: (§1) Compounds from Example 1 may be subjected to a standard MTT (3-(4,5-dimethylthiazol-2-yl)-2,5-diphenyltetrazolium bromide) and resazurin assays on solid tumour cell lines and leukemia cell lines, respectively, as previously reported (Wang S et al., J Med Chem 47:1662-1675, 2004 and Diab S e al. CheMedChem 9:962-972, 2014). Compound concentrations required to inhibit 50% of cell growth (GI50) can be calculated using non-linear regression analysis.
# CDK8/CycC = molecular target: T1, CDK8/CycC (Homo sapiens, UniProt P49336); test: Radiometric protein kinase assay (33PanQinase Activity Assay, ProQinase); type: biochemical; conditions: 1.0 μM ATP, 1.0 μg/50 μL substrate RBER-IRStide, duplicate measurements, read-out: CDK8 Kinase inhibition IC50
# T1 construct: purchased ProQinase GmbH, Freiburg, Germany
# T1 sequence (P49336 whole entry): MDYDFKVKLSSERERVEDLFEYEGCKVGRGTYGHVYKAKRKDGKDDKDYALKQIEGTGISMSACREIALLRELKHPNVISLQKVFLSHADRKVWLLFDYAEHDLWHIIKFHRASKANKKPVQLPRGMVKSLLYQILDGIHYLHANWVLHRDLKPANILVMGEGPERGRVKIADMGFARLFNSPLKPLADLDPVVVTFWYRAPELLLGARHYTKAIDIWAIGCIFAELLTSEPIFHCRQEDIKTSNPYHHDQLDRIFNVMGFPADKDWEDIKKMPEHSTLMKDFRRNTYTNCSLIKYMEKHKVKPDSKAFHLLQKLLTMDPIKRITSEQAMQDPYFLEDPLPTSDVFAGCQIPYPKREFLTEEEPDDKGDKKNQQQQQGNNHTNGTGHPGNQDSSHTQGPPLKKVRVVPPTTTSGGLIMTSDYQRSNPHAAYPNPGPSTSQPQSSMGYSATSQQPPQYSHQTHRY
# T1 sequence (P24863 whole entry partner): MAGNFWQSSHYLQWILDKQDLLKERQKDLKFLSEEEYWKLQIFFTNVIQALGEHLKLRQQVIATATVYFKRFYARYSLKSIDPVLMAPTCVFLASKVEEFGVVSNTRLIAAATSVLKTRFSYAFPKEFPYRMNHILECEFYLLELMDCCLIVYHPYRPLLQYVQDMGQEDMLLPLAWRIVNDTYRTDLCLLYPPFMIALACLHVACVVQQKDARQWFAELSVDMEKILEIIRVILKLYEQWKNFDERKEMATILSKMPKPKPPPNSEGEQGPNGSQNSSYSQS
# Method: The kinase activity of CDK8/CycC was measured using a radiometric protein kinase assay (33PanQinase® Activity Assay) by ProQinase GmbH, Freiburg, Germany, with the protocols shown at www.proqinase.com/sites/default/files/public/uploads/WildtypeProfiler/radiometric_assay_v05_2012_manual.pdf. IC50 determination (8.3 nM with 1.0 μM ATP and 1.0 μg/50 μL of substrate RBER-IRStide) was performed as duplicate measurements and calculated using Quattro Workflow V3.1.1 (Quattro Research GmbH, Germany). Apparent inhibition constants (Ki) values were calculated from Km (ATP) and IC50 values for the respective kinases.
# MV-4-11 = test: Cell viability assay (resazurin, leukemia cell lines), 72 h growth inhibition; type: cell-based; conditions: Homo sapiens, MV4-11, MV-4-11 cells
# Excerpt: as §1
SMILES,GI50 (HCT-116) [µM],IC50 (CDK8/CycC) [µM],GI50 (MV-4-11) [µM]
"CNc1nccc(-c2sc(NC(=O)Nc3ccc(C)c(Cl)c3)nc2C)n1 [Compound 29, 1-(3-Chloro-4-methylphenyl)-3-(4-methyl-5-(2-(methylamino)-pyrimidin-4-yl)thiazol-2-yl)urea]",7.77 ± 0.43,0.013,2.16 ± 1.17
"CNc1nccc(-c2sc(NC(=O)Nc3ccc(CN4CCOCC4)c(Cl)c3)nc2C)n1 [Compound 31, 1-(3-Chloro-4-(morpholinomethyl)phenyl)-3-(4-methyl-5-(2-(methylamino)-pyrimidin-4-yl)thiazol-2-yl)urea]",6.83 ± 1.01,0.022,0.945 ± 0.05
"CNc1nccc(-c2sc(NC(=O)Nc3cccc(SC)c3)nc2C)n1 [Compound 21, 1-(4-Methyl-5-(2-(methylamino)-pyrimidin-4-yl)thiazol-2-yl)-3-(3-(methylthio)phenyl)urea]",6.13 ± 0.91,0.009,3.35 ± 0.19
"CNc1nccc(-c2sc(NC(=O)Nc3ccc(CN4CCOCC4)c(C(F)(F)F)c3)nc2C)n1 [Compound 37, 1-(4-Methyl-5-(2-(methylamino)-pyrimidin-4-yl)thiazol-2-yl)-3-(4-(morpholinomethyl)-3-(trifluoromethyl)phenyl)urea]",7.84 ± 0.39,0.009,0.068 ± 0.03
"Cc1ccc(NC(=O)Nc2nc(C)c(-c3ccnc(N(C)C)n3)s2)cc1Cl [Compound 48, 1-(3-Chloro-4-methylphenyl)-3-(5-(2-(dimethylamino)pyrimidin-4-yl)-4-methylthiazol-2-yl)urea]",8.34 ± 0.6,0.046,5.91 ± 0.18
"CNc1nccc(-c2sc(NC(=O)Nc3cccc(OC(F)(F)F)c3)nc2C)n1 [Compound 18, 1-(4-Methyl-5-(2-(methylamino)-pyrimidin-4-yl)thiazol-2-yl)-3-(3-(trifluoromethoxy)phenyl)urea]",4.29 ± 0.523,0.025,5 ± 0.63
"CCN1CCN(Cc2ccc(NC(=O)Nc3nc(C)c(-c4nc(NC)ncc4Cl)s3)cc2C(F)(F)F)CC1 [Compound 66, 1-(5-(5-Chloro-2-(methylamino)pyrimidin-4-yl)-4-methylthiazol-2-yl)-3-(4-((4-ethylpiperazin-1-yl)methyl)-3-(trifluoromethyl)phenyl)urea]",,0.021,0.073 ± 0.03
"CCN1CCN(Cc2ccc(NC(=O)Nc3nc(C)c(-c4ccnc(N)n4)s3)cc2C(F)(F)F)CC1 [Compound 62, 1-(5-(2-Aminopyrimidin-4-yl)-4-methylthiazol-2-yl)-3-(4-((4-ethylpiperazin-1-yl)methyl)-3-(trifluoromethyl)phenyl)urea]",,0.014,0.001
"CNc1ncc(Cl)c(-c2sc(NC(=O)Nc3ccc(CN4CCN(S(C)(=O)=O)CC4)c(C(F)(F)F)c3)nc2C)n1 [Compound 69, 1-(5-(5-Chloro-2-(methylamino)pyrimidin-4-yl)-4-methylthiazol-2-yl)-3-(4-((4-(methylsulfonyl)piperazin-1-yl)methyl)-3-(trifluoromethyl)phenyl)urea]",,0.132,4.69 ± 0.42
"CCOc1cccc(NC(=O)Nc2nc(C)c(-c3ccnc(NC)n3)s2)c1 [Compound 19, 1-(3-Ethoxyphenyl)-3-(4-methyl-5-(2-(methylamino)pyrimidin-4-yl)thiazol-2-yl)urea]",0.854 ± 0.01,0.006,
"CCNc1nccc(-c2sc(NC(=O)Nc3ccc(CN4CCC(C)CC4)c(C(F)(F)F)c3)nc2C)n1 [Compound 57, 1-(5-(2-(Ethylamino)pyrimidin-4-yl)-4-methylthiazol-2-yl)-3-(4-((4-methylpiperidin-1-yl)methyl)-3-(trifluoromethyl)phenyl)urea]",,0.049,6.16 ± 0.14
"CSc1nccc(-c2sc(NC(=O)Nc3ccc(CN4CCN(C)CC4)c(C(F)(F)F)c3)nc2C)n1 [Compound 80, 1-(4-Methyl-5-(2-(methylthio)pyrimidin-4-yl)thiazol-2-yl)-3-(4-((4-methyl-piperazin-1-yl)methyl)-3-(trifluoromethyl)phenyl)urea]",,0.079,0.001
"Cc1nc(NC(=O)Nc2ccc(CN3CCOCC3)c(C(F)(F)F)c2)sc1-c1ccnc(N)n1 [Compound 64, 1-(5-(2-Aminopyrimidin-4-yl)-4-methylthiazol-2-yl)-3-(4-(morpholinomethyl)-3-(trifluoromethyl)phenyl)urea]",,0.015,0.275 ± 0.05
"CSc1nccc(-c2sc(NC(=O)Nc3ccc(CN4CCOCC4)c(C(F)(F)F)c3)nc2C)n1 [Compound 83, 1-(4-Methyl-5-(2-(methylthio)pyrimidin-4-yl)thiazol-2-yl)-3-(4-(morpholinomethyl)-3-(trifluoromethyl)phenyl)urea]",,0.121,1.56 ± 0.1
"CNc1nccc(-c2sc(NC(=O)Nc3ccc(CN4CCN(S(C)(=O)=O)CC4)c(C(F)(F)F)c3)nc2C)n1 [Compound 36, 1-(4-Methyl-5-(2-(methylamino)-pyrimidin-4-yl)thiazol-2-yl)-3-(4-((4-(methylsulfonyl)piperazin-1-yl)methyl)-3-(trifluoromethyl)-phenyl)urea]",,0.032,0.076 ± 0.01
"Cc1nc(NC(=O)Nc2ccc(CN3CCN(C)CC3)c(C(F)(F)F)c2)sc1-c1ccnc(N(C)C)n1 [Compound 49, 1-(5-(2-(Dimethylamino)pyrimidin-4-yl)-4-methylthiazol-2-yl)-3-(4-((4-methylpiperazin-1-yl)methyl)-3-(trifluoromethyl)phenyl)urea]",,0.082,< 0.001
"Cc1nc(NC(=O)Nc2ccc(CN3CCN(C)CC3)c(C(F)(F)F)c2)sc1-c1ccnc(C(C)C)n1 [Compound 76, 1-(5-(2-Isopropylpyrimidin-4-yl)-4-methylthiazol-2-yl)-3-(4-((4-methylpiperazin-1-yl)methyl)-3-(trifluoromethyl)phenyl)urea]",,0.074,< 0.001
"CC(=O)N1CCN(Cc2ccc(NC(=O)Nc3nc(C)c(-c4ccnc(N(C)C)n4)s3)cc2C(F)(F)F)CC1 [Compound 50, 1-(4-((4-Acetylpiperazin-1-yl)methyl)-3-(trifluoromethyl)-phenyl)-3-(5-(2-(dimethylamino)-pyrimidin-4-yl)-4-methylthiazol-2-yl)urea]",,0.202,0.612 ± 0.06
"CNc1ncc(Cl)c(-c2sc(NC(=O)Nc3ccc(CN4CCN(C)CC4)c(C(F)(F)F)c3)nc2C)n1 [Compound 65, 1-(5-(5-Chloro-2-(methylamino)pyrimidin-4-yl)-4-methylthiazol-2-yl)-3-(4-((4-methylpiperazin-1-yl)methyl)-3-(trifluoromethyl)phenyl)urea]",,0.015,0.055 ± 0.01
"CCN1CCN(Cc2ccc(NC(=O)Nc3ncc(-c4ccnc(NC)n4)s3)cc2C(F)(F)F)CC1 [Compound 59, 1-(4-((4-Ethylpiperazin-1-yl)methyl)-3-(trifluoromethyl)phenyl)-3-(5-(2-(methylamino)pyrimidin-4-yl)thiazol-2-yl)urea]",,0.012,0.001
"CNc1ncc(C#N)c(-c2sc(NC(=O)Nc3ccc(CN4CCN(S(C)(=O)=O)CC4)c(C(F)(F)F)c3)nc2C)n1 [Compound 74, 1-(5-(5-Cyano-2-(methylamino)pyrimidin-4-yl)-4-methylthiazol-2-yl)-3-(4-((4-(methylsulfonyl)piperazin-1-yl)methyl)-3-(trifluoromethyl)phenyl)urea]",,0.272,3.25 ± 0.35
"CNc1nccc(-c2cnc(NC(=O)Nc3ccc(CN4CCN(C(C)C)CC4)c(C(F)(F)F)c3)s2)n1 [Compound 60, 1-(4-((4-Isopropylpiperazin-1-yl)methyl)-3-(trifluoromethyl)phenyl)-3-(5-(2-(methylamino)pyrimidin-4-yl)thiazol-2-yl)urea]",,0.016,0.007
"CCNc1nccc(-c2sc(NC(=O)Nc3ccc(CN4CCOCC4)c(C(F)(F)F)c3)nc2C)n1 [Compound 56, 1-(5-(2-(Ethylamino)pyrimidin-4-yl)-4-methylthiazol-2-yl)-3-(4-(morpholinomethyl)-3-(trifluoromethyl)phenyl)urea]",,0.021,0.529 ± 0.12
"CCNc1nccc(-c2sc(NC(=O)Nc3ccc(CN4CCN(C(C)=O)CC4)c(C(F)(F)F)c3)nc2C)n1 [Compound 55, 1-(4-((4-Acetylpiperazin-1-yl)methyl)-3-(trifluoromethyl)-phenyl)-3-(5-(2-(ethylamino)-pyrimidin-4-yl)-4-methylthiazol-2-yl)urea]",,0.035,0.214 ± 0.12
"CNc1ncc(Cl)c(-c2sc(NC(=O)Nc3ccc(CN4CCN(C(C)C)CC4)c(C(F)(F)F)c3)nc2C)n1 [Compound 67, 1-(5-(5-Chloro-2-(methylamino)pyrimidin-4-yl)-4-methylthiazol-2-yl)-3-(4-((4-isopropylpiperazin-1-yl)methyl)-3-(trifluoromethyl)phenyl)urea]",,0.03,0.174 ± 0.01
"CCNc1nccc(-c2sc(NC(=O)Nc3ccc(CN4CCN(CC)CC4)c(C(F)(F)F)c3)nc2C)n1 [Compound 53, 1-(5-(2-(Ethylamino)pyrimidin-4-yl)-4-methylthiazol-2-yl)-3-(4-((4-ethylpiperazin-1-yl)methyl)-3-(trifluoromethyl)phenyl)urea]",,0.09,< 0.001
